In patent US20230047788A1, “COMPOSITIONS COMPRISING 5-CHOLESTEN-3, 25-DIOL, 3-SULFATE (25HC3S) OR PHARMACEUTICALLY ACCEPTABLE SALT THEREOF AND AT LEAST ONE CYCLIC OLIGOSACCHARIDE” (Virginia Commonwealth University, priority 2016, published 2023):

Experiment: Effect of phosphate and borate buffers on chemical stability (% remaining, impurity profile), osmolality, pH and appearance of 25HC3S 30 mg/mL in 250 mg/mL HPBCD at 80°C and 60°C
Type: physicochemical
Description: A total of six 25HC3S formulations at 30 mg/mL in 250 mg/mL of 2-hydroxypropyl beta cyclodextrin (HPBCD) containing 10, 20, 50 and 100 mM phosphate buffers at pH 7.5 to 8.1 and 10 and 50 mM borate buffers at pH 9.4 were prepared for the stability study. The chemical stability (measured as % remaining of 25HC3S) and physical stability (osmolality, pH and appearance) of the formulations were monitored under accelerated conditions for up to 7 days at 80° C. and up to 29 days at 60° C.
Two stock solutions of phosphate buffer at 100 and 200 mM at pH 7.4 and 7.3, respectively and one borate buffer at 100 mM at pH 9.3 were prepared (Tables 22A and 22B) and used for 250 mg/mL HPBCD vehicles preparation (Table 23).
Approximately 1200 mg each of 25HC3S was weighed into 40 mL volumetric flasks and diluted to volume with the six HPBCD vehicles containing 10-100 mM phosphate buffers or 10 and 50 mM borate buffers, respectively (Table 24). The final concentration of 25HC3S was 30 mg/mL (wt/volume, without adjusting for API purity). Aliquots of 2 mL of each formulation were filled into 2 mL glass vials, stoppered and sealed for stability sample set-up at 60° C. and 80° C. to study the effect of phosphate buffer (pH 7.5-8.1) and borate buffer (pH 9.4) at various buffer concentrations on the stability of the HPBCD formulations (Table 26).
A 0.5 mL of sample solution was transferred to a 25 mL volumetric flask and QS'ed with methanol/water=95/5 for 25HC3S concentration determination by HPLC. The % remaining of 25HC3S was calculated as follows: […]

[1] = 250 mg/mL HPBCD, 50 mM borate, 80°C, day 0
[2] = 250 mg/mL HPBCD, 50 mM borate, 80°C, day 1
[3] = 250 mg/mL HPBCD, 50 mM borate, 80°C, day 2
[4] = 250 mg/mL HPBCD, 50 mM borate, 80°C, day 3
[5] = 250 mg/mL HPBCD, 50 mM borate, 80°C, day 7
[6] = 250 mg/mL HPBCD, 50 mM borate, day 0
[7] = 250 mg/mL HPBCD, 50 mM phosphate, 80°C, day 0
[8] = 250 mg/mL HPBCD, 50 mM phosphate, 80°C, day 1
[9] = 250 mg/mL HPBCD, 50 mM phosphate, 80°C, day 2
[10] = 250 mg/mL HPBCD, 50 mM phosphate, 80°C, day 3
[11] = 250 mg/mL HPBCD, 50 mM phosphate, 80°C, day 7
[12] = 250 mg/mL HPBCD, 50 mM phosphate, day 0
[13] = 250 mg/mL HPBCD, 100 mM phosphate, 80°C, day 0
[14] = 250 mg/mL HPBCD, 100 mM phosphate, 80°C, day 1
[15] = 250 mg/mL HPBCD, 100 mM phosphate, 80°C, day 2
[16] = 250 mg/mL HPBCD, 100 mM phosphate, 80°C, day 3
[17] = 250 mg/mL HPBCD, 100 mM phosphate, 80°C, day 7
[18] = 250 mg/mL HPBCD, 100 mM phosphate, day 0

C[C@H](CCCC(C)(C)O)[C@H]1CC[C@H]2[C@@H]3CC=C4C[C@@H](OS(=O)(=O)[O-])CC[C@]4(C)[C@H]3CC[C@]12C.[Na+] [25HC3S, 5-cholesten-3, 25-diol, 3-sulfate]
pH (250 mg/mL HPBCD, 20 mM phosphate, day 0): 7.81
pH (250 mg/mL HPBCD, 50 mM borate, 60°C, 29 days): 9.19
25HC3S concentration [1]: 28.50 mg/mL
% Remaining of 25HC3S [1]: 100.0%
25HC3S concentration [2]: 26.78 mg/mL
% Remaining of 25HC3S [2]: 94.0%
Osmolality [2]: 527 mmol/kg
pH [2]: 9.34
25HC3S concentration [3]: 25.45 mg/mL
% Remaining of 25HC3S [3]: 89.3%
Osmolality [3]: 534 mmol/kg
pH [3]: 9.28
25HC3S concentration [4]: 24.05 mg/mL
% Remaining of 25HC3S [4]: 84.4%
Osmolality [4]: 535 mmol/kg
pH [4]: 9.12
25HC3S concentration [5]: 20.20 mg/mL
% Remaining of 25HC3S [5]: 70.9%
Appearance [5]: brown clear solutions
Osmolality [5]: 569 mmol/kg
pH [5]: 8.92
Osmolality [6]: 524 mmol/kg
pH [6]: 9.40
pH (250 mg/mL HPBCD, 50 mM phosphate, 60°C, 29 days): 7.28
25HC3S concentration [7]: 28.50 mg/mL
% Remaining of 25HC3S [7]: 100.0%
25HC3S concentration [8]: 27.13 mg/mL
% Remaining of 25HC3S [8]: 95.2%
Osmolality [8]: 427 mmol/kg
pH [8]: 7.42
25HC3S concentration [9]: 25.83 mg/mL
% Remaining of 25HC3S [9]: 90.6%
Osmolality [9]: 432 mmol/kg
pH [9]: 7.29
25HC3S concentration [10]: 24.65 mg/mL
% Remaining of 25HC3S [10]: 86.5%
Osmolality [10]: 423 mmol/kg
pH [10]: 7.08
25HC3S concentration [11]: 20.75 mg/mL
% Remaining of 25HC3S [11]: 72.8%
Osmolality [11]: 453 mmol/kg
pH [11]: 6.73
Osmolality [12]: 415 mmol/kg
pH [12]: 7.63
pH (250 mg/mL HPBCD, 100 mM phosphate, 60°C, 29 days): 7.28
25HC3S concentration [13]: 28.58 mg/mL
% Remaining of 25HC3S [13]: 100.0%
25HC3S concentration [14]: 27.10 mg/mL
% Remaining of 25HC3S [14]: 94.8%
Osmolality [14]: 589 mmol/kg
pH [14]: 7.42
25HC3S concentration [15]: 25.83 mg/mL
% Remaining of 25HC3S [15]: 90.4%
Osmolality [15]: 585 mmol/kg
pH [15]: 7.33
25HC3S concentration [16]: 24.65 mg/mL
% Remaining of 25HC3S [16]: 86.2%
Osmolality [16]: 589 mmol/kg
pH [16]: 7.15
25HC3S concentration [17]: 21.05 mg/mL
% Remaining of 25HC3S [17]: 73.7%
Appearance [17]: brown clear solution
Osmolality [17]: 616 mmol/kg
pH [17]: 6.93
Osmolality [18]: 573 mmol/kg
pH [18]: 7.53
Appearance (250 mg/mL HPBCD, 10, 20 and 50 mM phosphate, 80°C, up to 7 days): colorless clear solutions
appearance when removed from 80°C oven and cooled to room temperature (10 or 50 mM borate formulations, 80°C up to 7 days): a white precipitate was observed
25HC3S (60° C., day 0, Borate 10 mM): 28.58 mg/mL
% Peak Area 25-Hydroxy Cholesterol at RRT = 3.67 (60° C., day 0, Borate 10 mM): 0.0 % Peak Area
% Peak Area 25HC3S (60° C., day 0, Borate 10 mM): 99.7 % Peak Area
% Peak Area Major Thermal Degradant at RRT = 2.64 (60° C., day 0, Borate 10 mM): 0.3 % Peak Area
% Remaining of 25HC3S (60° C., day 0, Borate 10 mM): 100.0%
Osmolality (60° C., day 0, Borate 10 mM): 316 mmol/kg
pH (60° C., day 0, Borate 10 mM): 9.36
25HC3S (60° C., day 0, Borate 50 mM): 28.50 mg/mL
% Peak Area 25-Hydroxy Cholesterol at RRT = 3.67 (60° C., day 0, Borate 50 mM): 0.0 % Peak Area
% Peak Area 25HC3S (60° C., day 0, Borate 50 mM): 99.9 % Peak Area
% Peak Area Major Thermal Degradant at RRT = 2.64 (60° C., day 0, Borate 50 mM): 0.2 % Peak Area
% Remaining of 25HC3S (60° C., day 0, Borate 50 mM): 100.0%
Osmolality (60° C., day 0, Borate 50 mM): 524 mmol/kg
